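96-well plates; 48 h exposure; 5 concentrations. Endpoints by linear interpolation between flanking doses. Not reached: highest tested concentration assigned. At the GI50, growth is halved.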 Active and inactive are the calls of the source. No stated cut-off is given here; in the data, active = GI50 up to about 1.1 µM and inactive = higher.
Tests used:
Test in all cases: growth of human tumour cells (NCI), 48 h
[1] = system: COLO 205
[2] = system: NCI-H23
[3] = system: MCF7
[4] = system: SF-539
[5] = system: HCT-116
[6] = system: SK-MEL-2
[7] = system: RXF 393
[8] = system: SR
[9] = system: KM12
[10] = system: MDA-N
[11] = system: CAKI-1
[12] = system: HOP-62
[13] = system: SF-268
[14] = system: DU-145
[15] = system: SF-295
[16] = system: OVCAR-4
[17] = system: LOX IMVI
[18] = system: UO-31
[19] = system: HL-60
[20] = system: NCI-H226

Measured: GI50

Cc1cc(C)c(O)c(Cc2cccc(Cc3cc(C)cc(C)c3O)c2O)c1
inactive: [1] > 100 µM | [2] > 100 µM | [3] > 100 µM | [4] > 100 µM | [5] > 100 µM | [6] > 100 µM | [7] > 100 µM | [8] 77.6 µM | [9] > 100 µM | [10] > 100 µM | [11] > 100 µM | [12] > 100 µM | [13] > 100 µM | [14] > 100 µM | [15] > 100 µM | [16] > 100 µM | [17] > 100 µM | [18] > 100 µM

CCOc1ccccc1-c1nc2c(s1)C(=O)c1ccccc1C2=O
inactive: [1] 24.7 µM | [2] 10.5 µM | [3] 12.2 µM | [19] 1.92 µM | [4] 16.4 µM | [5] 15.2 µM | [6] 15.7 µM | [7] 16 µM | [8] 6.24 µM | [9] 15.4 µM | [10] 2.72 µM | [11] 12.2 µM | [12] 15.4 µM | [13] 12.6 µM | [14] 19.4 µM | [15] 12.6 µM | [16] 9.68 µM | [17] 4.37 µM | [18] 12.6 µM

CSc1nc2c(c(=O)[nH]1)N=C(c1ccccc1)CC(c1ccccc1)N2 (stereo not drawn)
inactive: [1] 41.7 µM | [2] 31.3 µM | [3] 12.3 µM | [19] 22.9 µM | [4] 23.2 µM | [5] 29.6 µM | [6] 27.8 µM | [7] 34.7 µM | [8] 21.1 µM | [9] 14.1 µM | [10] 20.7 µM | [11] 32.1 µM | [20] 39.7 µM | [12] 38.8 µM | [14] 30.1 µM | [15] 34.7 µM | [16] 30.3 µM | [17] 24.8 µM | [18] 50.4 µM

CCOC(=O)c1cc2c3ccn(Cc4ccccc4)c3c3c(C)noc3c2[nH]1
inactive: [1] > 100 µM | [2] > 100 µM | [3] > 100 µM | [19] > 100 µM | [5] > 100 µM | [6] > 100 µM | [7] > 100 µM | [8] > 100 µM | [9] > 100 µM | [10] > 100 µM | [11] > 100 µM | [20] > 100 µM | [12] > 100 µM | [13] > 100 µM | [14] > 100 µM | [15] > 100 µM | [16] > 100 µM | [17] > 100 µM | [18] > 100 µM

c1csc(-c2sc(-c3ccsc3)cc2Cc2ccsc2)c1
inactive: [1] > 10 µM | [2] > 10 µM | [3] > 10 µM | [19] > 10 µM | [7] > 10 µM | [8] > 10 µM | [9] > 10 µM | [10] > 10 µM | [11] > 10 µM | [12] > 10 µM | [13] > 10 µM | [14] > 10 µM | [15] > 10 µM | [16] > 10 µM | [17] > 10 µM

CC(=O)O[C@H]1[C@@H](OC2CCCC2(c2ccccc2)c2ccccc2)O[N+]([O-])=C[C@@H]1c1ccccc1 (stereo partly drawn)
inactive: [1] 14.6 µM | [2] 11.9 µM | [3] 3.48 µM | [19] 2.01 µM | [5] 3.24 µM | [6] 8.57 µM | [7] 2.82 µM | [8] 2.4 µM | [9] 11.3 µM | [10] 4.94 µM | [11] 4.85 µM | [20] 20.7 µM | [12] 16.6 µM | [13] 5.01 µM | [14] 5.75 µM | [15] 8.13 µM | [16] 6.46 µM | [17] 2.1 µM | [18] 10.7 µM

CCC1(c2ccc(OC)c(OC)c2)CCN2C(=O)C(O)CC21 (stereo not drawn)
inactive: [1] > 100 µM | [2] > 100 µM | [3] > 100 µM | [5] > 100 µM | [6] > 100 µM | [7] > 100 µM | [8] > 100 µM | [9] > 100 µM | [10] > 100 µM | [11] > 100 µM | [20] > 100 µM | [12] > 100 µM | [13] > 100 µM | [14] > 100 µM | [15] > 100 µM | [16] > 100 µM | [17] > 100 µM | [18] > 100 µM

CC(C)=CCC/C(C)=C/Cc1c2c(c3oc(-c4ccc(O)c(O)c4)c(O)c(=O)c3c1O)C=CC(C)(C)O2
inactive: [1] 1.64 µM | [2] 5.41 µM | [3] 2.79 µM | [19] 1.68 µM | [4] 1.79 µM | [5] 2.57 µM | [6] 6.58 µM | [7] 7.71 µM | [8] 1.84 µM | [9] 3.45 µM | [10] 5.02 µM | [11] 1.78 µM | [20] 6.22 µM | [12] 4.45 µM | [13] 3.56 µM | [14] 2.24 µM | [15] 5.62 µM | [16] 2.25 µM | [18] 3.44 µM

O=[N+]([O-])C(=C(NCc1ccccc1)NCc1ccccc1)C(Cl)=C(Cl)Cl
inactive: [1] 19.4 µM | [2] 38.4 µM | [3] 41.1 µM | [19] 20.2 µM | [4] 43 µM | [5] 30 µM | [7] 28 µM | [8] 23.8 µM | [9] 20.3 µM | [10] 25.2 µM | [11] 10.7 µM | [20] 39.5 µM | [12] > 100 µM | [13] 20.8 µM | [14] 69.3 µM | [15] 24.5 µM | [16] 31.7 µM | [17] 17.4 µM | [18] 25.3 µM

CCCCCCCCCCCCCCCCOCC(Cl)CP(=O)(O)OP(=O)(O)OCC1OC(n2cnc3c(N)ncnc32)C(O)C1O (stereo not drawn)
inactive: [1] > 100 µM | [2] > 100 µM | [3] > 100 µM | [19] > 100 µM | [4] > 100 µM | [5] 67 µM | [6] > 100 µM | [7] 61.8 µM | [8] > 100 µM | [9] > 100 µM | [10] > 100 µM | [11] > 100 µM | [20] > 100 µM | [12] > 100 µM | [13] > 100 µM | [14] > 100 µM | [16] > 100 µM | [17] > 100 µM | [18] > 100 µM

CN(C)Cc1cc(C(=O)/C=C/c2ccc(Cl)cc2Cl)cc(CN(C)C)c1O
inactive: [1] 1.44 µM | [2] 6.9 µM | [3] 2.33 µM | [19] 1.96 µM | [4] 4.4 µM | [5] 3.07 µM | [7] 2.51 µM | [8] 4.03 µM | [9] 1.47 µM | [10] 1.88 µM | [11] 2.36 µM | [20] 8.57 µM | [12] 3.54 µM | [13] 3.88 µM | [14] 4.73 µM | [15] 3.34 µM | [16] 2.22 µM | [17] 1.2 µM | [18] 2.07 µM
